Data set [1] is described as follows: Solubility test at 10 mg/mL (visual inspection and light scattering). Type of data set: physicochemical. Particulars: for Solubility, Condition 1: Acetate pH 4; for Solubility, Condition 2: Acetate pH 5; for Solubility, Condition 3: Phosphate pH 6; for Solubility, Condition 4: Phosphate pH 7; for Solubility, Condition 5: Phosphate pH 7.5.
Data set [2] relates to classical complement pathway. Put plainly: In vitro haemolysis assay (inhibition of classical complement pathway). The format is cell-based, human. Particulars: human serum, sensitized sheep red blood cells; Table 3, given as upper bounds; read-out: IC50, inhibition of hemolysis. Put shortly: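 Compound dilutions preincubated 15 min at room temperature with diluted human serum (titrated per batch for 70-90% maximal haemolysis), then antibody-sensitized sheep RBC (10^7/well) added for 30 min at 37 °C in Tris/casein buffer, pH 7.4. Stopped with EDTA; haemolysis read at 405 nm; IC50 by 4PL fit.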

Starred links: 1 amine or outer side, 2 acyl side, 3 side chain; linkers in the order of their positions; H or OH if unused. Positions of bridges follow the written chain, without caps; N, C: chain ends. Non-standard residues stand in square brackets, D forms with d. Residues, ends and D or L forms follow the SMILES beside them. Groups on a side chain read outwards from the residue. *: point of attachment. Trp(1-Me) = Cn1cc(C[C@H](N)C(=O)O)c2ccccc21; C18 diacid = O=C(O)CCCCCCCCCCCCCCCCC(=O)*; γGlu = O=C(O)[C@H](CCC(=O)[*:2])N[*:1]; Sar = CNCC(=O)O

Regarding `CC[C@H](C)[C@@H]1NC(=O)[C@@H](NC(=O)[C@@H](NC(=O)[C@H](CCC(=O)O)NC(=O)[C@H](CO)NC(=O)[C@H](CCC(=O)O)NC(C)=O)[C@@H](C)CC)CSSC[C@@H](C(=O)N[C@H](C(N)=O)[C@@H](C)O)NC(=O)[C@H](CCCNC(=N)N)NC(=O)[C@H](Cc2c[nH]cn2)NC(=O)[C@H](CCC(=O)O)NC(=O)CNC(=O)[C@H](Cc2c[nH]c3ccccc23)NC(=O)[C@H](CC(=O)O)NC(=O)[C@H](CCC(N)=O)NC(=O)[C@H](Cc2c[nH]c3ccccc23)NC1=O` [Compound 31] (Ac-ESEICIWQDWGEHRCT-NH2; disulfide 5-15), in data set [1], the “Solubility, Condition 1” value was “+ (“+” denotes solubility at the given condition, as determined by UV absorbance being less than 0.1 AU at 340 nm and the sample being clear when manually inspected)”; the “Solubility, Condition 2” value was “+ (“+” denotes solubility at the given condition, as determined by UV absorbance being less than 0.1 AU at 340 nm and the sample being clear when manually inspected)”; the “Solubility, Condition 3” value was “+ (“+” denotes solubility at the given condition, as determined by UV absorbance being less than 0.1 AU at 340 nm and the sample being clear when manually inspected)”; the “Solubility, Condition 4” value is “+ (“+” denotes solubility at the given condition, as determined by UV absorbance being less than 0.1 AU at 340 nm and the sample being clear when manually inspected)”. In addition, the “Solubility, Condition 5” value in data set [1] is “+ (“+” denotes solubility at the given condition, as determined by UV absorbance being less than 0.1 AU at 340 nm and the sample being clear when manually inspected)”. For the same molecule, in data set [2], the half-inhibitory concentration (IC50) was under 0.1 µM.

As for `CC[C@H](C)[C@@H]1NC(=O)[C@@H](NC(=O)[C@H](Cc2ccccc2)NC(=O)[C@H](CCC(=O)O)NC(C)=O)CSSC[C@@H](C(=O)N(C)CC(=O)N[C@@H](CCC(=O)O)C(=O)N[C@@H](C)C(N)=O)NC(=O)[C@H](CCCNC(=N)N)NC(=O)[C@H](Cc2c[nH]cn2)NC(=O)[C@H](CCC(=O)O)NC(=O)CNC(=O)[C@H](Cc2c[nH]c3ccccc23)NC(=O)[C@H](CC(=O)O)NC(=O)[C@H](CCC(N)=O)NC(=O)[C@H](Cc2cn(C)c3ccccc23)NC1=O` [Compound 80] (Ac-EFCI[Trp(1-Me)]QDWGEHRC[Sar]EA-NH2; disulfide 3-13), in data set [1], the “Solubility, Condition 1” value is “− (“−” denotes lack of solubility at the given condition, as UV absorbance at 340 nm exceeds 0.1 AU and/or it is visibly turbid or contains particles)”; the “Solubility, Condition 2” value is “− (“−” denotes lack of solubility at the given condition, as UV absorbance at 340 nm exceeds 0.1 AU and/or it is visibly turbid or contains particles)”; the “Solubility, Condition 3” value was “+ (“+” denotes solubility at the given condition, as determined by UV absorbance being less than 0.1 AU at 340 nm and the sample being clear when manually inspected)”; the “Solubility, Condition 4” value was “+ (“+” denotes solubility at the given condition, as determined by UV absorbance being less than 0.1 AU at 340 nm and the sample being clear when manually inspected)”. Besides, in data set [1], the “Solubility, Condition 5” value was “+ (“+” denotes solubility at the given condition, as determined by UV absorbance being less than 0.1 AU at 340 nm and the sample being clear when manually inspected)”. Also, the IC50 in data set [2] was under 0.1 µM.

For the molecule `CC[C@H](C)[C@@H]1NC(=O)[C@@H](NC(=O)[C@H](Cc2ccc(O)cc2)NC(=O)[C@H](CCC(=O)O)NC(=O)[C@H](CO)NC(C)=O)CSSC[C@@H](C(=O)N(C)CC(=O)N[C@@H](CCC(=O)O)C(=O)NCC(=O)N[C@@H](CCC(=O)O)C(=O)N[C@@H](CCCCNC(=O)CC[C@H](NC(=O)CNC(=O)CC[C@H](NC(=O)CCCCCCCCCCCCCCCCC(=O)O)C(=O)O)C(=O)O)C(N)=O)NC(=O)[C@H](CCCNC(=N)N)NC(=O)[C@H](Cc2c[nH]cn2)NC(=O)[C@H](CCC(=O)O)NC(=O)CNC(=O)[C@H](Cc2c[nH]c3ccccc23)NC(=O)[C@H](CC(=O)O)NC(=O)[C@H](CCC(N)=O)NC(=O)[C@H](Cc2cn(C)c3ccccc23)NC1=O` [Compound 114] (Ac-SEYCI[Trp(1-Me)]QDWGEHRC[Sar]EGEK([γGlu-Gly-γGlu-C18 diacid])-NH2; disulfide 4-14), in data set [1], the “Solubility, Condition 1” value is “+ (“+” denotes solubility at the given condition, as determined by UV absorbance being less than 0.1 AU at 340 nm and the sample being clear when manually inspected)”; the “Solubility, Condition 2” value is “+ (“+” denotes solubility at the given condition, as determined by UV absorbance being less than 0.1 AU at 340 nm and the sample being clear when manually inspected)”; the “Solubility, Condition 3” value was “+ (“+” denotes solubility at the given condition, as determined by UV absorbance being less than 0.1 AU at 340 nm and the sample being clear when manually inspected)”; the “Solubility, Condition 4” value is “+ (“+” denotes solubility at the given condition, as determined by UV absorbance being less than 0.1 AU at 340 nm and the sample being clear when manually inspected)”. Further, the “Solubility, Condition 5” value in data set [1] is “+ (“+” denotes solubility at the given condition, as determined by UV absorbance being less than 0.1 AU at 340 nm and the sample being clear when manually inspected)”. Besides, in data set [2], the IC50 was under 0.5 µM.

As for `CC[C@H](C)[C@@H]1NC(=O)[C@@H](NC(=O)[C@@H](NC(=O)[C@H](CCC(=O)O)NC(=O)[C@H](CO)NC(C)=O)[C@@H](C)CC)CSSC[C@@H](C(=O)N[C@H](C(=O)N[C@@H](CCC(=O)O)C(=O)N[C@@H](C)C(N)=O)[C@@H](C)O)NC(=O)[C@H](CCCNC(=N)N)NC(=O)[C@H](Cc2c[nH]cn2)NC(=O)[C@H](CCC(=O)O)NC(=O)CNC(=O)[C@H](Cc2c[nH]c3ccccc23)NC(=O)[C@H](CC(=O)O)NC(=O)[C@H](CCC(N)=O)NC(=O)[C@H](Cc2c[nH]c3ccccc23)NC1=O` [Compound 32] (Ac-SEICIWQDWGEHRCTEA-NH2; disulfide 4-14), in data set [1], the “Solubility, Condition 1” value is on record as “− (“−” denotes lack of solubility at the given condition, as UV absorbance at 340 nm exceeds 0.1 AU and/or it is visibly turbid or contains particles)”; the “Solubility, Condition 2” value is given as “− (“−” denotes lack of solubility at the given condition, as UV absorbance at 340 nm exceeds 0.1 AU and/or it is visibly turbid or contains particles)”; the “Solubility, Condition 3” value is reported as “− (“−” denotes lack of solubility at the given condition, as UV absorbance at 340 nm exceeds 0.1 AU and/or it is visibly turbid or contains particles)”; the “Solubility, Condition 4” value was “+ (“+” denotes solubility at the given condition, as determined by UV absorbance being less than 0.1 AU at 340 nm and the sample being clear when manually inspected)”. Also, the “Solubility, Condition 5” value in data set [1] is “+ (“+” denotes solubility at the given condition, as determined by UV absorbance being less than 0.1 AU at 340 nm and the sample being clear when manually inspected)”. In data set [2], the IC50 was under 0.1 µM.

With `CC[C@H](C)[C@H](NC(C)=O)C(=O)N[C@H]1CSSC[C@@H](C(=O)N[C@@H](CCC(=O)O)C(N)=O)NC(=O)[C@H](CCCNC(=N)N)NC(=O)[C@H](Cc2c[nH]cn2)NC(=O)[C@H](CCC(=O)O)NC(=O)CNC(=O)[C@H](Cc2c[nH]c3ccccc23)NC(=O)[C@H](CC(=O)O)NC(=O)[C@H](CCC(N)=O)NC(=O)[C@H](Cc2c[nH]c3ccccc23)NC(=O)[C@H]([C@@H](C)CC)NC1=O` [Compound 22] (Ac-ICIWQDWGEHRCE-NH2; disulfide 2-12), in data set [1], the “Solubility, Condition 1” value was “+ (“+” denotes solubility at the given condition, as determined by UV absorbance being less than 0.1 AU at 340 nm and the sample being clear when manually inspected)”; the “Solubility, Condition 2” value is listed as “− (“−” denotes lack of solubility at the given condition, as UV absorbance at 340 nm exceeds 0.1 AU and/or it is visibly turbid or contains particles)”; the “Solubility, Condition 3” value is on record as “− (“−” denotes lack of solubility at the given condition, as UV absorbance at 340 nm exceeds 0.1 AU and/or it is visibly turbid or contains particles)”; the “Solubility, Condition 4” value is “+ (“+” denotes solubility at the given condition, as determined by UV absorbance being less than 0.1 AU at 340 nm and the sample being clear when manually inspected)”. In data set [1], the “Solubility, Condition 5” value is “+ (“+” denotes solubility at the given condition, as determined by UV absorbance being less than 0.1 AU at 340 nm and the sample being clear when manually inspected)”. Besides, the IC50 in data set [2] was under 0.1 µM.

For the molecule `CC[C@H](C)[C@H](NC(=O)[C@H](C)NC(=O)[C@H](CO)NC(=O)CNC(C)=O)C(=O)N[C@H]1CSSC[C@@H](C(=O)N(C)CC(=O)N[C@@H](CCC(=O)O)C(N)=O)NC(=O)[C@H](CCCNC(=N)N)NC(=O)[C@H](Cc2c[nH]cn2)NC(=O)[C@H](CCC(=O)O)NC(=O)CNC(=O)[C@H](Cc2c[nH]c3ccccc23)NC(=O)[C@H](CC(=O)O)NC(=O)[C@H](CCC(N)=O)NC(=O)[C@H](Cc2c[nH]c3ccccc23)NC(=O)[C@H]([C@@H](C)CC)NC1=O` [Compound 40] (Ac-GSAICIWQDWGEHRC[Sar]E-NH2; disulfide 5-15), in data set [1], the “Solubility, Condition 1” value is reported as “− (“−” denotes lack of solubility at the given condition, as UV absorbance at 340 nm exceeds 0.1 AU and/or it is visibly turbid or contains particles)”; the “Solubility, Condition 2” value was “− (“−” denotes lack of solubility at the given condition, as UV absorbance at 340 nm exceeds 0.1 AU and/or it is visibly turbid or contains particles)”; the “Solubility, Condition 3” value was “+ (“+” denotes solubility at the given condition, as determined by UV absorbance being less than 0.1 AU at 340 nm and the sample being clear when manually inspected)”; the “Solubility, Condition 4” value is “+ (“+” denotes solubility at the given condition, as determined by UV absorbance being less than 0.1 AU at 340 nm and the sample being clear when manually inspected)”. The “Solubility, Condition 5” value in data set [1] is “+ (“+” denotes solubility at the given condition, as determined by UV absorbance being less than 0.1 AU at 340 nm and the sample being clear when manually inspected)”. In addition, in data set [2], the IC50 was under 0.25 µM.

Source of the values: patent publication US11965039B2, “Compstatin analogues and their medical uses” (priority 2018, dated 2024).
